2 compounds from patent publication US11685726B2, “Pharmaceutical compositions of 6-(2-(2H-tetrazol-5-yl)ethyl)-6-fluorodecahydroisoquinoline-3-carboxylic acid and ester derivatives thereof” (Sea Pharmaceuticals LLC, priority 2020, dated 2023) can be followed below.

For series [1], the system named is Maximal Electroshock Seizure (MES) model in rats. The series can be described thus: Maximal Electroshock Seizure (MES) model in rats. The series is classed as in vivo. From the text: Adult male Carworth Farms (CF-1) mice (25-35 g) or young male Sprague-Dawley (SD) rats (100-150 g) were obtained from Charles River Laboratories Inc (Wilmington Mass. USA). CF1 mice were typically used for the 6 Hz psychomotor seizure model (6 Hz model described in the section below) but could also be used for the Maximal electroshock seizure (MES) model if performed in mice (Maximal electroshock seizure model described in the section below). SD rats were typically used for MES model but could also be used for 6 Hz psychomotor model if performed in rats. Animals were allowed free access to food and water, except during testing periods. After delivery from supplier lab to the in vivo pharmacology testing lab, animals were allowed sufficient time to acclimate to housing conditions prior to testing. Animals were housed in plastic cages in rooms with controlled humidity, ventilation, and lighting (12 hours lights on and 12 hours darkness). The animals were housed and fed in a manner consistent with the recommendations in the “Guide for Care and Use of Laboratory Animals” (National Research Council), and in accordance with guidelines set by an Institutional Animal Care and Use Committee (IACUC). Animal experiments were conducted in a manner consistent with Animal Research: Reporting of In Vivo Experiments (ARRIVE) guidelines (UK) and were approved by an IACUC. […]

Series [2] can be described thus: Irwin neurological test battery in rats (SAD and MAD studies). Type of series: in vivo, rat. How it is done:
Rats were subjected to the Irwin Test Procedure of in vivo assessment of test compounds effects on neurological functions in rodents which was modified for rats. Rats were acclimated to the procedure room for at least 30 minutes. Rats were assessed for the features described below. Each rat was scored on a 0 to 3 scale with 0 representing the response in a normal animal and 3 representing a maximally impaired animal. Note that it is normal for an animal to score within the 0 to 1 range during Irwin testing. Animals were tested 55-60 min after test compound administration. Reference: Irwin, S. 20 Sep. 1968; “Comprehensive observational assessment: la. A symptomatic quantitative procedure for assessing the behavioral and physiologic state of the mouse” Psychopharmacologia 13(3): 222-257.
Single Ascending Dose (SAD) 1-day acute administration of test compound 2 by the oral PO route of administration to rats and samples collected at the timepoints described for subsequent extraction, dissolution and quantitative LCMS bioanalysis. […]
Multiple Ascending Dose (MAD) 5-day once daily administration of test compounds was done to rats and samples collected at the timepoints described for subsequent extraction, dissolution and quantitative LCMS bioanalysis. […]

For `O=C(O)[C@@H]1C[C@H]2C[C@@](F)(CCc3nnn[nH]3)CC[C@H]2CN1` [Compound 1, (3S,4aS,6S,8aR)-6-fluoro-6-[2-(1H-1,2,3,4-tetrazol-5-yl)ethyl]-decahydroisoquinoline-3-carboxylic acid], in series [1] (6 mg/kg S.C., 0.5 hours before corneal stimulus, SPHA formulation), the “MES Test Results (# rats protected from seizure/# rats tested)” value is given as 6/6. Besides, the “tolerability of treatment in MES study” value in series [1] (rats, single acute systemic administration) is “well tolerated”.

As to `O=C(O)[C@@H]1C[C@H]2CC(F)(CCc3nnn[nH]3)CC[C@H]2CN1` (stereo in doubt) [Compound 2, (3S,4aS,6R,8aR)-6-fluoro-6-[2-(1H-1,2,3,4-tetrazol-5-yl)ethyl]-decahydroisoquinoline-3-carboxylic acid], the “Irwin test observations, SAD study” value in series [2] (oral 10-200 mg/kg, day 1, 55-60 minutes post treatment) was “Normal or very little change from normal was observed for many of the doses”. The “Irwin test observations, MAD study” value in series [2] (oral once daily 5 days, day 3 and day 5, 55-60 minutes post treatment) is on record as “Normal or very little change from normal was observed for many of the doses”.
